Source: PubChem BioAssay (NCI)
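Protocol summary: plate cells (96-well), add compound at 5 concentrations, incubate 48 h, interpolate endpoints linearly. The concentration for 50% growth inhibition is given as GI50. TGI is the concentration that stops growth completely.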

Assays:
Test in all cases: NCI anticancer screen, dose series, 48 h
SW-620 colon = test system: SW-620 colon
HCT-116 colon = test system: HCT-116 colon
HCT-15 colon = test system: HCT-15 colon
OVCAR-4 ovarian = test system: OVCAR-4 ovarian
K-562 leukemia = test system: K-562 leukemia
RXF 393 renal = test system: RXF 393 renal
UACC-257 melanoma = test system: UACC-257 melanoma
HL-60(TB) leukemia = test system: HL-60(TB) leukemia
SN12C renal = test system: SN12C renal
DU-145 prostate = test system: DU-145 prostate

SMILES | TGI (SW-620 colon) | TGI (HCT-116 colon) | TGI (HCT-15 colon) | TGI (OVCAR-4 ovarian) | TGI (K-562 leukemia) | TGI (RXF 393 renal) | TGI (UACC-257 melanoma) | TGI (HL-60(TB) leukemia) | TGI (SN12C renal) | TGI (DU-145 prostate) | GI50 (HCT-116 colon) | GI50 (HCT-15 colon) | GI50 (OVCAR-4 ovarian) | GI50 (K-562 leukemia) | GI50 (HL-60(TB) leukemia) | GI50 (SN12C renal) | GI50 (SW-620 colon) | GI50 (DU-145 prostate) | GI50 (RXF 393 renal) | GI50 (UACC-257 melanoma)
O=[P+](O)c1cccnc1 | > 100 µM | > 100 µM | > 100 µM | > 100 µM | > 100 µM | > 100 µM | > 100 µM | > 100 µM | > 100 µM | – | – | – | – | – | – | – | – | – | – | –
O=C(O)C1C2CCC(O2)C1C(=O)NCc1cccnc1 (stereo not given) | > 100 µM | > 100 µM | > 100 µM | > 100 µM | – | > 100 µM | > 100 µM | – | > 100 µM | > 100 µM | – | – | – | – | – | – | – | – | – | –
Cc1cc2c(C)nn(Cc3ccccc3Cl)c2c(C#N)c1C | > 100 µM | > 100 µM | > 100 µM | – | – | > 100 µM | > 100 µM | > 100 µM | > 100 µM | – | – | – | – | – | – | – | – | – | – | –
C=C1CCC2(C(C)=O)COC1(C)O2 (stereo not given) | > 100 µM | > 100 µM | > 100 µM | – | > 100 µM | > 10 µM | > 100 µM | > 100 µM | > 100 µM | – | – | – | – | – | – | – | – | – | – | –
C/C(CC(=O)Nc1cccc(C)c1C)=N\NC(N)=S | – | > 100 µM | > 100 µM | > 100 µM | > 100 µM | > 100 µM | > 100 µM | > 100 µM | > 100 µM | – | – | – | – | – | – | – | – | – | – | –
C1C[S][Ge]2([S]CCS1)[S]CCSCC[S]2 | – | > 100 µM | > 100 µM | > 100 µM | > 100 µM | – | – | > 100 µM | > 100 µM | – | > 100 µM | > 100 µM | > 100 µM | > 100 µM | > 100 µM | > 100 µM | – | – | – | –
COc1cc(/C=C2\CC3C4CCC5=CC(=O)CC[C@]5(C)C4CC[C@]3(C)C2=O)ccc1OCCN1CCCCC1 (stereo not given in full) | 11.7 µM | 5.75 µM | 16 µM | 92.2 µM | 16.6 µM | 10.4 µM | 18.4 µM | – | 9.56 µM | 8.33 µM | 2.11 µM | 3.9 µM | 8.35 µM | 2.8 µM | – | 2.79 µM | 2.93 µM | 2.06 µM | 2.58 µM | 4.8 µM
Cc1cc(C)c(C2=NO[C@@H]3C(=O)N(c4ccc(Cc5ccc(N6C(=O)[C@H]7C(c8c(C)cc(C)cc8C)=NO[C@H]7C6=O)cc5)cc4)C(=O)[C@H]23)c(C)c1 | > 100 µM | – | > 100 µM | > 100 µM | > 100 µM | > 100 µM | > 100 µM | > 100 µM | > 100 µM | – | – | – | – | – | – | – | – | – | – | –
CCOC(=O)CP(=S)(S)c1ccccc1 (stereo not given) | > 100 µM | – | – | > 100 µM | > 100 µM | > 100 µM | > 100 µM | > 100 µM | > 100 µM | – | – | – | – | – | – | – | – | – | – | –
CSc1nc(SC)c2c(C)cn(C3OC(C)C(O)C(O)C3O)c2n1 (stereo not given) | > 100 µM | > 100 µM | > 100 µM | > 100 µM | – | > 100 µM | – | > 100 µM | > 100 µM | > 100 µM | – | – | – | – | – | – | – | – | – | –
COC(=O)C1=Cc2cn(S(=O)(=O)c3ccc(C)cc3)c3cccc(c23)C(C=C(C)C)N1C(C)=O (stereo not given) | > 100 µM | > 100 µM | – | > 100 µM | > 100 µM | > 100 µM | > 100 µM | 41.2 µM | > 100 µM | – | – | – | – | – | – | – | – | – | – | –
CN(CCCCN)c1ccc2c(=O)[nH][nH]c(=O)c2c1 | > 100 µM | > 100 µM | > 100 µM | > 100 µM | > 100 µM | > 100 µM | > 100 µM | > 100 µM | > 100 µM | – | – | – | – | – | – | – | – | – | – | –
Cc1cc(C)c(C(=O)/C(=C/c2ccccc2)c2ccccc2)c(C)c1 | > 100 µM | > 100 µM | > 100 µM | > 100 µM | > 100 µM | > 100 µM | > 100 µM | 90.6 µM | > 100 µM | – | – | – | – | – | – | – | – | – | – | –
O=c1sc(-c2nc3ccccc3[nH]2)c(/N=C/c2ccccc2)n1-c1ccccc1 | > 100 µM | – | > 100 µM | 26.7 µM | > 100 µM | > 100 µM | > 100 µM | > 100 µM | > 100 µM | – | – | – | – | – | – | – | – | – | – | –
Cc1ccc(S(=O)(=O)OC2CSSCC2OS(=O)(=O)c2ccc(C)cc2)cc1 (stereo not given) | 29.6 µM | 26 µM | 22.5 µM | 23.3 µM | 47.6 µM | 37.7 µM | 22.8 µM | 22 µM | 24 µM | – | – | – | – | – | – | – | – | – | – | –
CN(CC1NCCCC1O)C12CC3CC(CC(C3)C1)C2 (stereo not given) | > 100 µM | – | > 100 µM | > 100 µM | > 100 µM | – | > 100 µM | > 100 µM | > 100 µM | – | – | – | – | – | – | – | – | – | – | –
CC(C)OC(=O)c1cccnc1/C=N/O | > 100 µM | > 100 µM | > 100 µM | – | > 100 µM | – | > 100 µM | > 100 µM | > 100 µM | – | – | – | – | – | – | – | – | – | – | –
c1ccc(N2N=NC3C4CC(C5c6ccccc6C45)C32)cc1 (stereo not given) | > 100 µM | 82.7 µM | > 100 µM | > 100 µM | > 100 µM | 44.1 µM | 76.4 µM | 85.5 µM | > 100 µM | – | – | – | – | – | – | – | – | – | – | –
COc1cc(OC)c(/C=C/C(=O)c2c(O)cc(OC)c(C3CCN(C)CC3)c2OC)c(OC)c1 | 3.02 µM | 1.65 µM | 2.8 µM | 3 µM | – | 3.3 µM | 2.77 µM | 3.99 µM | – | 3.25 µM | 0.414 µM | 1.31 µM | 1.4 µM | – | 2.17 µM | – | 1.45 µM | 1.75 µM | 1.76 µM | 1.46 µM
CC(C)(N)C(=O)N[C@@H]1C(=O)N2[C@@H]1SC(C)(C)[C@@H]2C(=O)O | > 100 µM | > 100 µM | > 100 µM | > 100 µM | > 100 µM | > 100 µM | > 100 µM | – | > 100 µM | > 100 µM | – | – | – | – | – | – | – | – | – | –
c1cnc2nc3n(c2c1)CSC3 | > 100 µM | – | > 100 µM | > 100 µM | > 100 µM | > 100 µM | > 100 µM | > 100 µM | > 100 µM | – | – | – | – | – | – | – | – | – | – | –
O=Cc1cn(S(=O)(=O)c2ccccc2)c2ccccc12 | > 100 µM | 40.1 µM | > 100 µM | > 100 µM | 50 µM | > 100 µM | > 100 µM | 49.2 µM | > 100 µM | – | – | – | – | – | – | – | – | – | – | –
COC(=O)c1cc2c(nc1C)-c1ccccc1OS2(=O)=O | > 100 µM | > 100 µM | > 100 µM | > 100 µM | > 100 µM | > 100 µM | > 100 µM | > 100 µM | > 100 µM | – | – | – | – | – | – | – | – | – | – | –
